In patent publication US20250101057A1, “SOLID FORMS” (Gilead Sciences, Inc., priority 2023, published 2025):

Assay: Dynamic Vapor Sorption (DVS) hygroscopicity
Type: physicochemical
Conditions: for hygroscopicity by DVS analysis (in words): 0 to 90% RH at 25° C.; for DVS (%): Table 6 summary of crystalline Forms I-V; for DVS weight change: from 0 to 90% RH at 25° C.
Method: Dynamic Vapor Sorption (DVS) was used to study hygroscopicity on Model Q5000 SA (TA Instruments, New Castle, DE). A sample (1-10 mg) was placed in an aluminum pan and loaded on the sample side of the twin pan balance. The water sorption and desorption were studied as a function of relative humidity (RH) at 25° C. in 10% RH increments from 0% RH to 90% RH and then back to 0%. […] Data analysis was performed using Universal Analysis 2000 Version 4.7A (TA Instruments, New Castle, DE).

[1] = listed as Compound 1, crystalline Form III
[2] = listed as Compound 1, crystalline Form II
[3] = listed as Compound 1, crystalline Form V
[4] = listed as Compound 1, crystalline Form IV

C#C[C@]1(COC(=O)Cc2ccccc2)O[C@@H](n2cnc3c(N)nc(F)nc32)C[C@@H]1OC(=O)Cc1ccccc1 [Form III, (2R,3S,5R)-5-(6-amino-2-fluoro-9H-purin-9-yl)-2-ethynyl-2-((2-phenylacetoxy)methyl)tetrahydrofuran-3-yl 2-phenylacetate]
hygroscopicity by DVS analysis (in words) [1]: slightly hygroscopic
DVS (%) (listed as III): 1.2%
DVS weight change [1]: ~1.2%

C#C[C@]1(COC(=O)Cc2ccccc2)O[C@@H](n2cnc3c(N)nc(F)nc32)C[C@@H]1OC(=O)Cc1ccccc1 [Form II, (2R,3S,5R)-5-(6-amino-2-fluoro-9H-purin-9-yl)-2-ethynyl-2-((2-phenylacetoxy)methyl)tetrahydrofuran-3-yl 2-phenylacetate]
hygroscopicity by DVS analysis (in words) [2]: non-hygroscopic
DVS (%) (listed as II): 0.08%
DVS weight change [2]: around 0.1%

C#C[C@]1(COC(=O)Cc2ccccc2)O[C@@H](n2cnc3c(N)nc(F)nc32)C[C@@H]1OC(=O)Cc1ccccc1 [Form I, (2R,3S,5R)-5-(6-amino-2-fluoro-9H-purin-9-yl)-2-ethynyl-2-((2-phenylacetoxy)methyl)tetrahydrofuran-3-yl 2-phenylacetate]
DVS (%) (listed as I): 0.85%

C#C[C@]1(COC(=O)Cc2ccccc2)O[C@@H](n2cnc3c(N)nc(F)nc32)C[C@@H]1OC(=O)Cc1ccccc1 [Form V, (2R,3S,5R)-5-(6-amino-2-fluoro-9H-purin-9-yl)-2-ethynyl-2-((2-phenylacetoxy)methyl)tetrahydrofuran-3-yl 2-phenylacetate]
hygroscopicity by DVS analysis (in words) [3]: non-hygroscopic
DVS (%) (listed as V): 0.10%
DVS weight change [3]: ~0.1%

C#C[C@]1(COC(=O)Cc2ccccc2)O[C@@H](n2cnc3c(N)nc(F)nc32)C[C@@H]1OC(=O)Cc1ccccc1 [Form IV, (2R,3S,5R)-5-(6-amino-2-fluoro-9H-purin-9-yl)-2-ethynyl-2-((2-phenylacetoxy)methyl)tetrahydrofuran-3-yl 2-phenylacetate]
hygroscopicity by DVS analysis (in words) [4]: non-hygroscopic
DVS (%) (listed as IV): 0.16%
DVS weight change [4]: ~0.16%
